Measurements published in US12011448B2, “Therapeutic or preventing agent for nephrotic syndrome including indole compound” (Japan Tobacco Inc., priority 2018, dated 2024).

Key:
[1] = tested on: rat anti-glomerular basement membrane (GBM) antibody induced nephritis model; assay: rat anti-GBM antibody induced nephritis model (urinary protein excretion, plasma total cholesterol); assay type: in vivo; conditions: disease animal model showing nephrotic syndrome-like symptoms
Description: Using a rat anti-GBM antibody induced nephritis model, the suppressive effect of Compound A on an increase in urinary protein excretion and plasma total cholesterol concentration so was evaluated. The evaluation was performed by reference to non-patent document 2. As the experiment animal, 8-week-old female WKY/NCrlCrlj rat (CHARLES RIVER LABORATORIES JAPAN, INC.) was used. Monohydrochloride of Compound A was dissolved in 0.5% (w/v) methylcellulose (MC) to prepare 2 mg/mL and 6 mg/mL Compound A solutions. Ciclosporin (Wako Pure Chemical Industries, Ltd., 0.5% (w/v)) was suspended in MC to prepare a 2 mg/mL Ciclosporin suspension. […]
As for urine, the urine volume was measured, after which the protein concentration in the centrifugal supernatant was measured by absorbance at wavelength 600 nm/sub-wavelength 660 nm using a total protein assay kit (micro TP-Test Wako, Wako Pure Chemical Industries, Ltd.). The urinary protein excretion (mg/day) was calculated from the urine volume and the protein concentration.
As for blood, the total cholesterol concentration (mg/dL) in plasma obtained by centrifugation was measured using a biochemical automatic analysis apparatus (Hitachi automatic analysis apparatus 7180, Hitachi High-Technologies).
The mean of the urinary protein excretion and the plasma total cholesterol concentration was calculated.

[2] = target: T1, inducible T cell kinase (ITK) (Homo sapiens, UniProt Q08881); conditions: described in patent document 1 (WO 2011/065402); cited from earlier work
T1 sequence (Q08881 1-620): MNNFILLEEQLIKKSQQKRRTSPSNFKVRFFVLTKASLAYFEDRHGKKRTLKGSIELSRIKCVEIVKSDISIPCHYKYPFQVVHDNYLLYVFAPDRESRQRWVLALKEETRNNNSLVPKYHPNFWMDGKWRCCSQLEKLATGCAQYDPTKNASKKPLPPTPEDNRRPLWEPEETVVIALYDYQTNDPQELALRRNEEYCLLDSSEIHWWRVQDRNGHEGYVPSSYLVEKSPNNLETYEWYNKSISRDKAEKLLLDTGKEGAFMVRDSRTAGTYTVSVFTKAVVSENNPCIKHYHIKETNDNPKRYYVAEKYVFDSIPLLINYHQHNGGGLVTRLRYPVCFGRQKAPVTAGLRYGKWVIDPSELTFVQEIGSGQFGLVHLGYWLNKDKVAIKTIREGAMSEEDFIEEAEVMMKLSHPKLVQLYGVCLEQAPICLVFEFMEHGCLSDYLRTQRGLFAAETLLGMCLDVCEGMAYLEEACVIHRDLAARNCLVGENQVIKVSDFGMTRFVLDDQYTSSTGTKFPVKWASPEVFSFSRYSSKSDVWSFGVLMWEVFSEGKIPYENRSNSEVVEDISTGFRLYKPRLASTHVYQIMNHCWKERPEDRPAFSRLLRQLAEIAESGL

C[C@@H](C(=O)N(C)c1ccc2cc(-c3n[nH]c4c3CCC(C)(C)C4)[nH]c2c1)N1CCOCC1 [Compound A, N-[2-(6,6-dimethyl-4,5,6,7-tetrahydro-1H-indazol-3-yl)-1H-indol-6-yl]-N-methyl-(2S)-2-(morpholin-4-yl)propanamide]
severity of the disease [1]: significantly reduce severity of the disease | inducible T cell kinase (ITK) inhibitory activity [2]: has an inducible T cell kinase (ITK) inhibitory activity
